Measured values from patent US9226929B2, “Pharmaceutically active disubstituted triazine derivatives” (Bayer Intellectual Property GMBH, priority 2011, dated 2016).

What was measured:
CDK4/CyclinD1 = target: T1, CDK4/CyclinD1 (Homo sapiens, UniProt P11802); assay: Lance Ultra KinaSelect Assay, CDK4; type: biochemical; conditions: ATP 90 μM; read-out: CDK4 LANCE assay (activity range), IC50
T1 construct: purchased Invitrogen
Experimental: 2. Measurement of half maximal inhibitory concentration to CDKs This protocol describes how the Lance Ultra KinaSelect Assay was performed to determine half maximal inhibitory concentration (1050) of compounds of general formula (I) and CDK/Cyclin complexes. The principle behind this enzymatic assay is based upon the phosphorylation of the ULight-Peptide Substrat. It is detected by using a specific
EU-labeled anti-phospho peptide antibody. The binding of the Eu-labeled anti-phospho peptide antibody to the phosphorylated ULight labeled peptide gives rise to a FRET-signal. Binding of an inhibitor to the kinase prevents phosphorylation of the ULight-MBP Substrat, resulting in a loss of FRET.
The compounds of general formula (I) summarized in Table 5 were diluted from a 10 mM DMSO stock solution 1:10 in a total volume of 15 μL DMSO. This compound predilution was then serial diluted 1:3 over 8 steps in DMSO and briefly spun down. Each compound solution was now diluted 1:20 in Enzymatic Buffer (HEPES: 50 mM, pH: 7.5; MgCl2: 10 mM; EGTA: 1 mM; DTT: 2 mM; Tween-20: 0.01%), mixed thoroughly and spun down. For every sample, 2 μL of the diluted compound were mixed with 6 μL CDK/Cyclin/Substrat solution and 2 μL ATP solution in a well of a small volume 384 well plate (Corning Incorporated, Corning, N.Y., USA; order no. 3673). The CDK/Cyclin was diluted to the appropriate concentration (see Table 3) and the ATP concentration was adjusted to its […] for the CDK/Cyclin, which was 3 μM for CDK2/Cyclin A, 20 μM for CDK1/Cyclin B1, 25 μM for CDK7/Cyclin H and CDK9/Cyclin T1, 55 μM for CDK6/Cyclin D3, 90 μM for CDK4/Cyclin D1 and 125 μM for CDK9/Cyclin K. For negative controls, in each well 2 μL of DMSO solution (1% final DMSO assay concentration) was mixed with 6 μL substrate solution (50 nM ULight MBP final assay concentration) and 2 μL ATP solution (appropriate final concentration see Table 3). For positive controls, in each well 2 μL of DMSO solution (1% final DMSO assay concentration) was mixed with 6 μL CDK/Cyclin/Substrat (appropriate final concentration see Table 3) and 2 μL Tracer ATP solution (appropriate final concentration see Table 3). Positive and negative controls were calculated from at least 8 different sample wells. The 384 well plates were mixed in a Teleshaker plate mixer (Beckman Coulter, Brea, Calif., USA) at 2000 rpm for 40 sec, and incubated for 1 h at room temperature. Before reading, 10 μL the detection buffer (Lance Detection Buffer 1×; EDTA: […]; Eu-Anti-P-MBP: see Table 3) was added. The FRET signal was measured at 340 nm excitation, 665 nm and 615 nm emission (for the kinase tracer and LanthaScreen Eu-AB, respectively) with an Envision spectrophotometer (Perkin Elmer, Waltham, Mass., USA) with 50 μs delay and 300 μs integration time. IC50 values were determined from the sigmoidal dose response curves with the software Quattro Workflow (Quattro GmbH, Munich, Germany).

CDK7/CyclinH/MAT1 = target: T2, CDK7/CyclinH/MAT1 (Homo sapiens, UniProt P50613); assay: LanthaScreen Eu Kinase Binding Assay, CDK7; conditions: tracer 236, read-out: CDK7 (activity range), Kd
T2 construct: His; purchased Carna Biosciences
Procedure, shortened: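 TR-FRET displacement of an Alexa Fluor 647 active-site tracer, detected with a Eu anti-GST antibody, over an 8-point 1:3 compound series. Tracer was set at its Kd (30 nM for CDK2/Cyclin A, CDK7 and CDK9/Cyclin T1; 35 nM for CDK9/Cyclin K). Read after 1 h at room temperature; Kd was fitted from sigmoidal curves.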

T1 sequence (P11802 whole entry): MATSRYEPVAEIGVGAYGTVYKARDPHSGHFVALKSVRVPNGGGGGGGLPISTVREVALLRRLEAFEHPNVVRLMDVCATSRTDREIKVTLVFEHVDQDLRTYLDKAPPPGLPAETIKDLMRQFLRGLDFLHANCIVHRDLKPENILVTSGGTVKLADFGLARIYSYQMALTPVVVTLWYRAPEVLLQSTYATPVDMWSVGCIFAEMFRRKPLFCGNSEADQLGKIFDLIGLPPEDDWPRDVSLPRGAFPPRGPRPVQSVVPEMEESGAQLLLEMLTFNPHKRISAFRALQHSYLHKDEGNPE
T1 sequence (P24385 whole entry partner): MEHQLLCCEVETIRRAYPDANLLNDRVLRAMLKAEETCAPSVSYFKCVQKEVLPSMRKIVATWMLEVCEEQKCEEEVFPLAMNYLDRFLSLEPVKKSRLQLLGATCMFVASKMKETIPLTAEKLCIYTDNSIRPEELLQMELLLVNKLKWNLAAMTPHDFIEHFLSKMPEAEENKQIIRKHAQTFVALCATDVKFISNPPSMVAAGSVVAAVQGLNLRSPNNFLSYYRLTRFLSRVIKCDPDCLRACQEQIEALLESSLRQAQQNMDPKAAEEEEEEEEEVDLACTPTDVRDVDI
T2 sequence (P50613 whole entry): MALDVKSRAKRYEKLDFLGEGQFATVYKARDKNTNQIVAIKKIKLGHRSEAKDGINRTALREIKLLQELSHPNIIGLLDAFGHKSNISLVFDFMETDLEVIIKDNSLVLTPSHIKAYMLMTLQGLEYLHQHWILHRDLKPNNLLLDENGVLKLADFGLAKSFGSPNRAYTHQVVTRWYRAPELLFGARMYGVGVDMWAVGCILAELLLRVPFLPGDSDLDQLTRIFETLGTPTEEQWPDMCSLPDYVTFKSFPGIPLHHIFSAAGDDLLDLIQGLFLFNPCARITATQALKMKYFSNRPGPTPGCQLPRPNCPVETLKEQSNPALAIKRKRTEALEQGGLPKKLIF
T2 sequence (P51946 whole entry partner): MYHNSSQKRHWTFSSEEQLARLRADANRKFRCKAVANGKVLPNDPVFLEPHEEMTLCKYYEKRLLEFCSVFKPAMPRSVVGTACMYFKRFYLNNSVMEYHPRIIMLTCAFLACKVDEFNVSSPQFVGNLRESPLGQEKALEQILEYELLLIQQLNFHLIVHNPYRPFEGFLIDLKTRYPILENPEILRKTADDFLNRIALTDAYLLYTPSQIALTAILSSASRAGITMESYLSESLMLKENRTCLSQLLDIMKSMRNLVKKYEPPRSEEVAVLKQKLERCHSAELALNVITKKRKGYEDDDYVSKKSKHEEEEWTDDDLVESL
T2 sequence (P51948 whole entry partner): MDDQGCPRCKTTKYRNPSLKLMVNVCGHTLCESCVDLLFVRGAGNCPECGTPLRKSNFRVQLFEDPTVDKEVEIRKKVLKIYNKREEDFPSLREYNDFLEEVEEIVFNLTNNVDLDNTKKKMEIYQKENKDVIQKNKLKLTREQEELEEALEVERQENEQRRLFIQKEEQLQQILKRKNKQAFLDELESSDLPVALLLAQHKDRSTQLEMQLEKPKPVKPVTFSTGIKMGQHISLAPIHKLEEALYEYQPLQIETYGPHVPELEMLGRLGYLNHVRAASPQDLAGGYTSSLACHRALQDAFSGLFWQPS

NS(=O)(=O)Cc1cccc(Nc2ncnc(N3CCCC3c3ccccc3)n2)c1 (racemic) [Compound B33, rac-3-[(4-(2-Phenylpyrrolidin-1-yl)-1,3,5-triazin-2-yl)amino]-benzenemethanesulfonamide]
IC50 (CDK4/CyclinD1): > 10 µM
Kd (CDK7/CyclinH/MAT1): > 10 µM

NS(=O)(=O)Cc1cccc(Nc2ncnc(N3CCCCC3)n2)c1 [Compound B1, 3-[(4-(Piperidin-1-yl)-1,3,5-triazin-2-yl)amino]benzenemethane sulfonamide]
IC50 (CDK4/CyclinD1): > 10 µM
Kd (CDK7/CyclinH/MAT1): > 10 µM

COC[C@H]1CCCN1c1ncnc(Nc2cccc(CS(N)(=O)=O)c2)n1 [Compound B17, (R)-3-[(4-(2-(Methoxymethyl)pyrrolidin-1-yl)-1,3,5-triazin-2-yl)amino]benzenemethanesulfonamide]
IC50 (CDK4/CyclinD1): > 10 µM
Kd (CDK7/CyclinH/MAT1): > 10 µM

COC(=O)[C@H]1CCCN1c1ncnc(Nc2cccc(CS(N)(=O)=O)c2)n1 [Compound B21, (R)-Methyl 1-[4-((3-(Sulfamoylmethyl)phenyl)amino)-1,3,5-triazin-2-yl]pyrrolidine-2-carboxylate]
Kd (CDK7/CyclinH/MAT1): > 10 µM

NS(=O)(=O)Cc1cccc(Nc2ncnc(N3CCc4ncccc4C3)n2)c1 [Compound B38, 3-[(4-(7,8-Dihydro-1,6-naphthyridin-6(5H)-yl)-1,3,5-triazin-2-yl)amino]-benzenemethanesulfonamide]
IC50 (CDK4/CyclinD1): > 10 µM
Kd (CDK7/CyclinH/MAT1): 1 to 10 µM

NS(=O)(=O)Cc1cccc(Nc2ncnc(N3CCc4nc[nH]c4C3)n2)c1 [Compound B44, 3-[(4-(6,7-Dihydro-3H-imidazo[4,5-c]pyridin-5(4H)-yl)-1,3,5-triazin-2-yl)amino]benzenemethanesulfonamide]
Kd (CDK7/CyclinH/MAT1): 1 to 10 µM

NS(=O)(=O)Cc1cccc(Nc2ncnc(N3CCc4ncsc4C3)n2)c1 [Compound B45, 3-[(4-(6,7-Dihydrothiazolo[5,4-c]pyridin-5(4H)-yl)-1,3,5-triazin-2-yl)amino]benzenemethanesulfonamide]
Kd (CDK7/CyclinH/MAT1): 1 to 10 µM

NS(=O)(=O)Cc1cccc(Nc2ncnc(N3CCCn4nccc43)n2)c1 [Compound B47, 3-[(4-(6,7-Dihydropyrazolo[1,5-a]pyrimidin-4(5H)-yl)-1,3,5-triazin-2-yl)amino]benzenemethanesulfonamide]
IC50 (CDK4/CyclinD1): 1 to 10 µM
Kd (CDK7/CyclinH/MAT1): 0.1 to 1 µM

NS(=O)(=O)Cc1cccc(Nc2ncnc(N3Cc4cn[nH]c4C3)n2)c1 [Compound B51, 3-[(4-(Pyrrolo[3,4-c]pyrazol-5(1H,4H,6H)-yl)-1,3,5-triazin-2-yl)amino]-benzenemethanesulfonamide]
IC50 (CDK4/CyclinD1): > 10 µM
Kd (CDK7/CyclinH/MAT1): 1 to 10 µM
